Common to all, as to type: biochemical
One assay concerns the target T1, bovine pancreas trypsin (Bos taurus, UniProt P00760).
T1 construct: bovine pancreas trypsin (1.5 µg/ml in 1 mM HCl, 20 mM CaCl2, SIGMA); purchased SIGMA; host or cells: bovine pancreas
T1 sequence (P00760 24-246): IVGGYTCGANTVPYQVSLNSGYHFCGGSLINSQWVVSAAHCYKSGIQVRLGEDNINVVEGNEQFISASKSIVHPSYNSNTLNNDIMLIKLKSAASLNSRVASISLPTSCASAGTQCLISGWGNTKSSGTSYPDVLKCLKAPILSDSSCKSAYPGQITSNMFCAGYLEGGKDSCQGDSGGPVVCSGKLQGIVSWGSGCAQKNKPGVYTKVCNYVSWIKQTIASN
Kind of assay: Inhibitory activity on other serine proteases: Trypsin (sucAAPRpNA). As to conditions: for IC50: trypsin; for fold vs chymase: trypsin IC50 compared with IC50 value of chymase. The protocol: The mixture of 10 µl of bovine pancreas trypsin (1.5 µg/ml in 1 mM HCl, 20 mM CaCl2, SIGMA), 80 µl of buffer (50mM Tris-HCl, 2 mM CaCl2 pH 8.0) and 1 µl of the compound of the present invention (in DMSO) was incubated for 20 minutes at room temperature and for 10 minutes at 37 °C. The resultant mixture was reacted with 10 µl of a substrate (5 mM sucAAPRpNA (BACHEM Feinchemikalien AG) in 50 % DMSO) for about 60 minutes at 37 °C and the absorption intensity (405 nm) was measured.
(§1) The IC50 values of each serine protease are calculated and compared with IC50 value of chymase.

The target in another assay is T2, human plasma thrombin (Homo sapiens, UniProt P00734).
T2 construct: human plasma thrombin (1 U/ml in 10 mM Mes, pH 6.0, 0.1 M NaCl, SIGMA); purchased SIGMA; host or cells: human plasma
As to the kind of experiment: Inhibitory activity on other serine proteases: Thrombin (Chromozyme TH). The conditions noted are these: for IC50: thrombin; for fold vs chymase: thrombin IC50 compared with IC50 value of chymase. The protocol:
The mixture of 10 µl of human plasma thrombin (1 U/ml in 10 mM Mes, pH 6.0, 0.1 M NaCl, SIGMA), 80 µl of buffer (0.1 M Tris-HCl, pH 8.0, 10 mM CaCl2, 0.1 M NaCl) and 1 µl of the compound of the present invention (in DMSO) was incubated for 20 minutes at room temperature and for 10 minutes at 37 °C. The resultant mixture was reacted with 10 µl of a substrate (5 mM Chromozyme TH (TosGPRpNA, Boehringer Mannheim) in H2O) for about 60 minutes at 37 °C and the absorption intensity (405 nm) was measured.
as §1

For a further assay, the target named is T3, Cathepsin G (Homo sapiens, UniProt P08311).
T3 construct: human purulent sputum cathepsin (1.7 µg/ml in 1 mM HCl, 20 mM CaCl2, CALBIOCHEM); purchased CALBIOCHEM; host or cells: human purulent sputum
T3 sequence (P08311 21-244): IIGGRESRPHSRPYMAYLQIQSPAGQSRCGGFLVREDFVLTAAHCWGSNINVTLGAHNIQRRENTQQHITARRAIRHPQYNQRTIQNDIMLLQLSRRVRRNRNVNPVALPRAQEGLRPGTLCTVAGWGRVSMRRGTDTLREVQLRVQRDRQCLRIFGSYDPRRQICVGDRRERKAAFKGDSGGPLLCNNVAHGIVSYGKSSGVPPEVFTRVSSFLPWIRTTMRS
Kind of assay: Inhibitory activity on other serine proteases: Cathepsin G (sucAAPFpNA). The conditions noted are these: for IC50: Cathepsin G; for fold vs chymase: Cathepsin G IC50 compared with IC50 value of chymase. The protocol:
The mixture of 10 µl of human purulent sputum cathepsin (1.7 µg/ml in 1 mM HCl, 20 mM CaCl2, CALBIOCHEM), 80 µl of buffer (50mM Tris-HCl, pH 7.5, 5.2 mM CaCl2) and 1 µl of the compound of the present invention (in DMSO) was incubated for 20 minutes at room temperature and for 10 minutes at 37 °C. The resultant mixture was reacted with 10 µl of a substrate (5 mM sucAAPFpNA in DMSO, BACHEM Feinchemikalien AG) for about 60 minutes at 37 °C and the absorption intensity (405 nm) was measured.
as §1

The target of a further assay is T4, human serine plasmin (Homo sapiens, UniProt P00747).
T4 construct: purchased SIGMA
Kind of assay: Inhibitory activity on other serine proteases: Plasmin (Chromozyme PL). The conditions noted are these: for IC50: plasmin; for fold vs chymase: plasmin IC50 compared with IC50 value of chymase. The protocol: The mixture of 10 µl of human serine plasmin (0.1 mg/ml in 1 mM HCl, 20 mM CaCl2, SIGMA), 80 µl of buffer (50mM Tris-HCl, pH 7.5, 50 mM NaCl) and 1 µl of the compound of the present invention (in DMSO) was incubated for 20 minutes at room temperature and for 10 minutes at 37 °C. The resultant mixture was reacted with 10 µl of a substrate (5 mM Chromozyme PL(TosGPKpNA, Boehringer Mannheim) in H2O) for about 30 minutes at 37 °C and the absorption intensity (405 nm) was measured.
as §1

The target of assay [1] is T5, human neutrophils elastase (Homo sapiens, UniProt P08246).
T5 construct: human neutrophils elastase (0.02 mg/ml in 50 mM Tris-HCl, pH 7.0, 2 mM CaCl2, Athens research and technology); purchased Athens research and technology; host or cells: human neutrophils
T5 sequence (P08246 30-267): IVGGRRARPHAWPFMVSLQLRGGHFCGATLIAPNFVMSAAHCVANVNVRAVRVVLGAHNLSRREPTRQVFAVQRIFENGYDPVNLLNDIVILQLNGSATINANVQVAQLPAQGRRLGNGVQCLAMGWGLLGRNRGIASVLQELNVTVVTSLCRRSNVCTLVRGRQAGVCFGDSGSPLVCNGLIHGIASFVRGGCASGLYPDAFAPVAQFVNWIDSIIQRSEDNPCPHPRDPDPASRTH
Kind of assay: Inhibitory activity on other serine proteases: Elastase (sucAAVpNA). The conditions noted are these: for IC50: elastase; for fold vs chymase: elastase IC50 compared with IC50 value of chymase. As to the method:
The mixture of 10 µl of human neutrophils elastase (0.02 mg/ml in 50 mM Tris-HCl, pH 7.0, 2 mM CaCl2, Athens research and technology), 80 µl of buffer (50mM Tris-HCl, pH 8.0, 2 mM CaCl2) and 1 µl of the compound of the present invention (in DMSO) was incubated for 20 minutes at room temperature and for 10 minutes at 37 °C. The resultant mixture was reacted with 10 µl of a substrate (5 mM sucAAVpNA (BACHEM Feinchemikalien AG) in 50 % DMSO) for about 30 minutes at 37 °C and the absorption intensity (405 nm) was measured.
as §1

The target of a further assay is T6, human chymase (Homo sapiens, UniProt P23946).
T6 sequence (P23946 22-247): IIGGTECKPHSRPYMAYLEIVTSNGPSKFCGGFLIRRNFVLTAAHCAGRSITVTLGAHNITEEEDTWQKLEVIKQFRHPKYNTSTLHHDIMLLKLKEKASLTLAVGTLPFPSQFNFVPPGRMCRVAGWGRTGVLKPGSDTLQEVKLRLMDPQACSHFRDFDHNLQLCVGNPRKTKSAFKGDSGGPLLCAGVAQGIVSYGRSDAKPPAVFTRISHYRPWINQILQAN
As to the kind of experiment: Chymase inhibitory activity (Suc-Ala-Ala-Pro-Phe-pNA substrate, absorption 405 nm). The conditions noted are these: purified human chymase, 30 minutes at 37 °C preincubation, substrate 0.5 mM. As to the method:
Compound (I) was dissolved in dimethylsulfoxide (DMSO) at 10^-2 M. Concentration of DMSO for activity measurement was 1 %.
Compound (I) dissolved in DMSO and purified human chymase (Takai et al., Clinica Chimica Acta 265, 1997, 13-20) were added to a buffer (0.1M Tris-HCl, 1.8M NaCl pH8.0). After the mixture was treated for 30 minutes at 37 °C, Suc-Ala-Ala-Pro-Phe-pNA (BACHEM Feinchemikalien AG) was added at 0.5 mM as a substrate and the mixture was enzymatically reacted at 37 °C.
After the reaction, the absorption intensity (405 nm) of the solution was measured to calculate the inhibitory rate.

The results in this text go back to patent publication EP1099690A1, “MONOCYCLIC $g(b)-LACTAM COMPOUNDS AND CHYMASE INHIBITORS CONTAINING THE SAME” (SHIONOGI & CO., LTD., priority 1998, dated 2000).

T4 sequence (P00747 581-810 limits assumed): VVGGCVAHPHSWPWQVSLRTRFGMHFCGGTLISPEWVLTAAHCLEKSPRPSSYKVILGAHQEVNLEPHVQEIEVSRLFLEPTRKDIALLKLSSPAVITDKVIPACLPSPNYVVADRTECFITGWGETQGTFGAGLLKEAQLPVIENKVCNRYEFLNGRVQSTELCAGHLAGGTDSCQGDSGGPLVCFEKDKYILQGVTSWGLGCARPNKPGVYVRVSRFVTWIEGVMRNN
T4 sequence (P00747 98-580 partner limits assumed): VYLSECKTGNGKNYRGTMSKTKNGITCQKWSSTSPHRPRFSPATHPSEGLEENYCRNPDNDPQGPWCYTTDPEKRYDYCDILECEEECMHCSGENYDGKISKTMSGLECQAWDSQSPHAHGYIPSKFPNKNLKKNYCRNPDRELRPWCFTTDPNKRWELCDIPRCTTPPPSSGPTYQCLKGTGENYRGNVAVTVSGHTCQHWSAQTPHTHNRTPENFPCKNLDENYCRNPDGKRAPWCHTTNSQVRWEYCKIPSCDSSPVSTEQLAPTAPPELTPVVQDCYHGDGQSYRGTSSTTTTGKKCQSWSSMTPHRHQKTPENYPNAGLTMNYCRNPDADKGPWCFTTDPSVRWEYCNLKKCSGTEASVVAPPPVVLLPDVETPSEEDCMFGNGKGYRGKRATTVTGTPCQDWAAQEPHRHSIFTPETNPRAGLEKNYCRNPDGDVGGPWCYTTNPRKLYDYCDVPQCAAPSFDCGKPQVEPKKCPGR

With `CCOc1ccccc1C[C@@H]1C(=O)N(C(=O)NC(c2ccc(C)cc2)c2ccc(C)cc2)[C@H]1Oc1ccc(C(=O)O)cc1` [Compound I-158], the IC50 (as a rule, the midpoint of a concentration-inhibition curve) against bovine pancreas trypsin is 6200 nM; at human plasma thrombin, more than 100000 nM; against Cathepsin G, 143 nM; against human serine plasmin, more than 100000 nM; in assay [1] it was 25000 nM; against human chymase, 8.2 nM. Moreover, the fold vs chymase is on record as 760 on bovine pancreas trypsin; more than 10000 at human plasma thrombin; 17 on Cathepsin G; more than 10000 at human serine plasmin; 3000 in assay [1].
`CCOc1ccccc1CC1C(=O)N(C(=O)NC(c2ccccc2)c2ccccc2)C1Oc1ccc(C(=O)O)cc1` (stereo not shown) [Compound I-144, 4-[1-(Benzhydryl-carbamoyl)-3-(2-ethoxy-benzyl)-4-oxo-azetidin-2-yloxy]-benzoic acid]: the IC50 at bovine pancreas trypsin is 25000 nM; against human plasma thrombin, more than 100000 nM; against Cathepsin G it was 35.4 nM; against human serine plasmin it was more than 10000 nM; in assay [1], more than 100000 nM; at human chymase, 3.1 nM. Moreover, the fold vs chymase at bovine pancreas trypsin was 8000; at human plasma thrombin it was more than 30000; at Cathepsin G it was 11; at human serine plasmin, more than 3000; in assay [1], more than 30000.
In turn, `CCOc1ccccc1C[C@@H]1C(=O)N(C(=O)N[C@H](CC)c2ccccc2)[C@H]1Oc1ccc(C(=O)N2CCN(C3CCCCC3)CC2)cc1` [Compound I-137] came in with an IC50 against human chymase of 3.4 nM. That is a single-digit nanomolar value.
The compound `C[C@@H](NC(=O)N1C(=O)[C@@H](Cc2ccccc2)[C@@H]1Oc1ccc(/C=C/C(=O)N2CCN(C)CC2)cc1)c1ccccc1` [Compound I-54] displayed an IC50 on human chymase of 3.5 nM. This IC50 and that of the compound before are within 1.5-fold of each other.
Take `CCC1(Cc2ccccc2)C(=O)N(C(=O)NC(C)c2ccccc2)C1Oc1ccc(C(=O)O)cc1` (stereo not shown) [Compound I-172]: at human chymase, it took 115 nM to reach half-maximal inhibition (IC50). This IC50 lies about 33-fold higher than the previous one.
Regarding `C[C@@H](NC(=O)N1C(=O)[C@@H](Cc2ccccc2)[C@@H]1Oc1ccc(C(=O)N2CCC[C@@H]2C)cc1)c1ccccc1` [Compound I-41], on human chymase, it took 1.9 nM to reach half-maximal inhibition (IC50).
At human chymase, `CCOc1ccccc1C[C@@H]1C(=O)N(C(=O)NC(c2ccccc2)c2ccccc2)[C@H]1Oc1ccc(C(=O)OCCN2CCOCC2)cc1` [Compound I-150] yielded an IC50 of 5.4 nM. This IC50 is about 2.8-fold higher than that of the compound before.
Take `C[C@@H](NC(=O)N1C(=O)[C@@H](Cc2ccccc2)[C@@H]1Oc1ccc(C(=O)NCc2ccccc2)cc1)c1ccccc1` [Compound I-45]: the IC50 on human chymase is 20 nM.
Compound `C[C@H](NC(=O)N1C(=O)[C@@H](Cc2ccccc2)[C@H]1Oc1ccc(C(=O)N2CCN(C)CC2)cc1)c1ccccc1` [Compound I-81] displayed an IC50 at human chymase of 13 nM.
The compound `C[C@@H](NC(=O)N1C(=O)[C@@H](Cc2ccccc2)[C@@H]1Oc1ccc(CC(=O)N2CCN(C)CC2)cc1)c1ccccc1` [Compound I-50] registered an IC50 against human chymase of 1.13 nM. This IC50 is about 12-fold lower than that of the compound before.
`C[C@@H](NC(=O)N1C(=O)[C@@H](Cc2ccccc2)[C@H]1Oc1ccc(C(=O)OCc2ccccc2)cc1)c1ccccc1` [Compound I-69] came in with an IC50 at human chymase of 16.2 nM.
